In patent publication US20100144626A1, “Treatment of Multi-Drug Resistant Bacterial Infections” (priority 2006, published 2010):
≈ marks a conversion by molar mass, not a printed value. Entries after “also recorded” stand apart in the source; their conditions may differ. Where two headings read alike, the source gives them in different places.

Legend:
Assay type in all cases: cell-based
[1] = system: Enterococcus faecalis (VRE) E8 VanA; test: MIC, agar dilution (BSAC guidelines); settings: E. faecalis (VRE) E8 VanA
Description: (§1) In example experiments miconazole nitrate, was dissolved in methanol and econazole nitrate and clotrimazole were dissolved in DMSO and methanol respectively. Other solvents that may be used include caster oil, pyridine, DMSO and 0.9% saline. For IV administration agents may be solubilised in polyethoxylated caster oil, or cyclodextrins such as sulfobutylether7-βcyclodextrin or hydroxypropyl-β-cyclodextrin and lactic acid. Minimum inhibitory concentrations (MICs) of a range of clinical and control bacterial organisms were measured according to BSAC (British Society for Antimicrobial Chemotherapy) guidelines, described briefly as follows;
(§2) Preparation of Agar Plates and Broths
(§3) Stock solutions of each agent were prepared using the formula:
(§4) Where P=μg of active compound per mg (μg/mg) • V=volume required (mL) • C=final concentration of solution (mg/L) • W=weight of agent (mg) to be dissolved in volume V (mL)
(§5) Stock solutions were prepared at concentrations of 1000 mg/L and 100 mg/L. The appropriate amounts of each stock solution were added to separate Petri dishes give the following final concentrations (after the addition of 20 mL molten agar): 128, 64, 32, 16, 8, 4, 2, 1, 0.5, 0.25, 0.12, 0.06, 0.03, 0.015 mg/L.
(§6) Volumes (20 mL) of cooled molten IST agar (oxoid) was added to each Petri dish and mixed by swirling.
(§7) After drying, the plates were stored at 4° C. and protected from light. Plates were used on the day of preparation.
(§8) The test organisms were grown overnight in 5 mL IST broth. Using a dilution in 0.9% saline of 1:500 for Gram-negative organisms and 1:100 for Gram-positive organisms, the appropriate agar plates were inoculated using a multipoint inoculator.
(§9) Plates were incubated at 37° C. in air for 18-20 hours.
(§10) The MIC is the minimum amount of an antibiotic at which there is no visible growth of bacteria. Tiny single colonies or faint hazes were not counted as growth.

[2] = system: Escherichia coli NCTC 10418; test: MIC, agar dilution (BSAC guidelines)
Description: as §1, §2, §3, §4, §5, §6, §7, §8, §9, §10

[3] = system: Enterococcus gallinarum (VRE) E1 NCTC 12359 VanC1; test: MIC, agar dilution (BSAC guidelines)
Description: as §1, §2, §3, §4, §5, §6, §7, §8, §9, §10

[4] = system: Staphylococcus epidermidis ATCC 1228; test: MIC, agar dilution (BSAC guidelines)
Description: as §1, §2, §3, §4, §5, §6, §7, §8, §9, §10

[5] = system: VISA, strain USA/VISA 5827; test: MIC, agar dilution (BSAC guidelines); settings: Staphylococcus aureus
Description: as §1, §2, §3, §4, §5, §6, §7, §8, §9, §10

[6] = system: Enterococcus faecium (VRE) NCTC 7171; test: MIC, agar dilution (BSAC guidelines)
Description: as §1, §2, §3, §4, §5, §6, §7, §8, §9, §10

[7] = system: Enterococcus faecium (VRE) E15 VanA ATCC 4147; test: MIC, agar dilution (BSAC guidelines)
Description: as §1, §2, §3, §4, §5, §6, §7, §8, §9, §10

[8] = system: Acinetobacter Baumannii ATCC 19606; test: MIC, agar dilution (BSAC guidelines)
Description: as §1, §2, §3, §4, §5, §6, §7, §8, §9, §10

[9] = system: Enterococcus faecium (VRE) VanR B145344C LFE; test: MIC, agar dilution (BSAC guidelines); settings: E. faecium (VRE) VanR B145344C LFE
Description: as §1, §2, §3, §4, §5, §6, §7, §8, §9, §10

[10] = system: Pseudomonas aeruginosa NCTC 10662; test: MIC, agar dilution (BSAC guidelines)
Description: as §1, §2, §3, §4, §5, §6, §7, §8, §9, §10

[11] = system: Klebsiella pneumoniae ESBL 700603; test: MIC, agar dilution (BSAC guidelines)
Description: as §1, §2, §3, §4, §5, §6, §7, §8, §9, §10

[12] = system: Enterococcus faecium (VRE) E19 UAA/522 VanB; test: MIC, agar dilution (BSAC guidelines); settings: E. faecium (VRE) E19 UAA/522 VanB
Description: as §1, §2, §3, §4, §5, §6, §7, §8, §9, §10

[13] = system: VISA, strain USA/VISA 5836; test: MIC, agar dilution (BSAC guidelines); settings: Staphylococcus aureus
Description: as §1, §2, §3, §4, §5, §6, §7, §8, §9, §10

[14] = system: VISA, strain VISA 3900 UK; test: MIC, agar dilution (BSAC guidelines); settings: Staphylococcus aureus
Description: as §1, §2, §3, §4, §5, §6, §7, §8, §9, §10

Gram-negative organisms = test: Growth inhibition, summary of MIC testing; settings: summary in words
Description: as §1, §5, §8, §9, §10

[15] = system: strains of Staphylococci and Enterococci with reduced susceptibility to vancomycin; test: Growth inhibition, summary of MIC testing; settings: summary in words
Description: as §1, §5, §8, §9, §10

[16] = replicate 1, read-out: Minimum inhibitory concentration (MIC)
[17] = replicate 2, read-out: Minimum inhibitory concentration (MIC)
[18] = replicate 3, read-out: Minimum inhibitory concentration (MIC)

Clc1ccc(COC(Cn2ccnc2)c2ccc(Cl)cc2Cl)cc1 (centres unmarked) [Econazole]
MIC [1, 16]: 7 µg/mL (≈ 18.3 µM)
MIC [1, 17]: > 6 µg/mL
MIC [1, 18]: > 6 µg/mL
MIC ([2]; NCTC10418, E. coli NCTC 10418, replicate 1, read-out: Minimum inhibitory concentration (MIC)): > 10 µg/mL
MIC ([2]; NCTC10418, E. coli NCTC 10418, replicate 2, read-out: Minimum inhibitory concentration (MIC)): > 6 µg/mL
MIC ([2]; NCTC10418, E. coli NCTC 10418, replicate 3, read-out: Minimum inhibitory concentration (MIC)): > 6 µg/mL
MIC ([3]; E. gallinarum (VRE) E1 NCTC 12359 VanC1, replicate 1, read-out: Minimum inhibitory concentration (MIC)): 3 µg/mL (≈ 7.86 µM)
MIC ([3]; E. gallinarum (VRE) E1 NCTC 12359 VanC1, replicate 2, read-out: Minimum inhibitory concentration (MIC)): 5.5 µg/mL (≈ 14.4 µM)
MIC ([3]; E. gallinarum (VRE) E1 NCTC 12359 VanC1, replicate 3, read-out: Minimum inhibitory concentration (MIC)): 3 µg/mL (≈ 7.86 µM)
MIC ([4]; ATCC1228, S. epidermidis ATCC 1228, replicate 1, read-out: Minimum inhibitory concentration (MIC)): 4 µg/mL (≈ 10.5 µM)
MIC ([4]; ATCC1228, S. epidermidis ATCC 1228, replicate 2, read-out: Minimum inhibitory concentration (MIC)): 2 µg/mL (≈ 5.24 µM)
MIC ([4]; ATCC1228, S. epidermidis ATCC 1228, replicate 3, read-out: Minimum inhibitory concentration (MIC)): 2.5 µg/mL (≈ 6.55 µM)
MIC [5, 16]: 1.5 µg/mL (≈ 3.93 µM)
MIC [5, 17]: 2 µg/mL (≈ 5.24 µM)
MIC [5, 18]: 2.5 µg/mL (≈ 6.55 µM)
MIC ([6]; E. faecium (VRE) NCTC 7171, replicate 1, read-out: Minimum inhibitory concentration (MIC)): 4 µg/mL (≈ 10.5 µM)
MIC ([6]; E. faecium (VRE) NCTC 7171, replicate 2, read-out: Minimum inhibitory concentration (MIC)): > 6 µg/mL
MIC ([6]; E. faecium (VRE) NCTC 7171, replicate 3, read-out: Minimum inhibitory concentration (MIC)): > 6 µg/mL
MIC ([7]; E. faecium (VRE) E15 VanA ATCC 4147, replicate 1, read-out: Minimum inhibitory concentration (MIC)): 3 µg/mL (≈ 7.86 µM)
MIC ([7]; E. faecium (VRE) E15 VanA ATCC 4147, replicate 2, read-out: Minimum inhibitory concentration (MIC)): 4.5 µg/mL (≈ 11.8 µM)
MIC ([7]; E. faecium (VRE) E15 VanA ATCC 4147, replicate 3, read-out: Minimum inhibitory concentration (MIC)): 3 µg/mL (≈ 7.86 µM)
MIC ([8]; ATCC19606, Acinetobacter Baumannii ATCC 19606, replicate 1, read-out: Minimum inhibitory concentration (MIC)): > 10 µg/mL
MIC ([8]; ATCC19606, Acinetobacter Baumannii ATCC 19606, replicate 2, read-out: Minimum inhibitory concentration (MIC)): > 6 µg/mL
MIC ([8]; ATCC19606, Acinetobacter Baumannii ATCC 19606, replicate 3, read-out: Minimum inhibitory concentration (MIC)): > 6 µg/mL
MIC [9, 16]: 3.5 µg/mL (≈ 9.17 µM)
MIC [9, 17]: 5 µg/mL (≈ 13.1 µM)
MIC [9, 18]: 2.5 µg/mL (≈ 6.55 µM)
MIC ([10]; NCTC10662, P. aeruginosa NCTC 10662, replicate 1, read-out: Minimum inhibitory concentration (MIC)): > 10 µg/mL
MIC ([10]; NCTC10662, P. aeruginosa NCTC 10662, replicate 2, read-out: Minimum inhibitory concentration (MIC)): > 6 µg/mL
MIC ([10]; NCTC10662, P. aeruginosa NCTC 10662, replicate 3, read-out: Minimum inhibitory concentration (MIC)): > 6 µg/mL
MIC ([11]; ESBL700603, K. pneumoniae ESBL 700603, replicate 1, read-out: Minimum inhibitory concentration (MIC)): > 10 µg/mL
MIC ([11]; ESBL700603, K. pneumoniae ESBL 700603, replicate 2, read-out: Minimum inhibitory concentration (MIC)): > 6 µg/mL
MIC ([11]; ESBL700603, K. pneumoniae ESBL 700603, replicate 3, read-out: Minimum inhibitory concentration (MIC)): > 6 µg/mL
MIC [12, 16]: 2 µg/mL (≈ 5.24 µM)
MIC [12, 17]: 4.5 µg/mL (≈ 11.8 µM)
MIC [12, 18]: 2 µg/mL (≈ 5.24 µM)
MIC [13, 16]: 2 µg/mL (≈ 5.24 µM)
MIC [13, 17]: 4.5 µg/mL (≈ 11.8 µM)
MIC [13, 18]: 4 µg/mL (≈ 10.5 µM)
MIC [14, 16]: 1.5 µg/mL (≈ 3.93 µM)
MIC [14, 17]: 2 µg/mL (≈ 5.24 µM)
MIC [14, 18]: 2 µg/mL (≈ 5.24 µM)
activity against Gram-negative organisms (Gram-negative organisms): no significant activity
activity against strains of Staphylococci and Enterococci with reduced susceptibility to vancomycin [15]: good activity; also recorded: capable of inhibiting the growth
